Source: patent publication US11311512B2, “Lymph directing prodrugs” (priority 2014, dated 2022)
“And” between values parts separate entries of the source, which are not always exact repeats. Equal entries are not always repeated. Where two headings read alike, the source gives them in different places.

Legend:
[1] = system: porcine pancreatic lipase; test: In vitro hydrolysis by porcine pancreatic lipase; format: in vitro ADME; settings: 37° C., simulated intestinal micellar solution pH 6.5, up to 180 min
Procedure: To provide for higher throughput of experiments, unless otherwise stated, in vitro hydrolysis of TST related compounds was performed via incubation with porcine pancreatic lipase. This provides a more reproducible source of pancreatic enzymes, facilitates enhanced experimental throughput and is also a greater challenge than collected rat enzymes (since enzyme activity in rat intestinal fluid is low). Briefly, pancreatic lipase solution was prepared prior to the hydrolysis experiment by dispersion of 1 g porcine pancreatin in 5 ml of lipolysis buffer and 16.9 μl of 5M NaOH. The suspension was mixed well and centrifuged at 3500 rpm for 15 minutes at 5° C. to provide a supernatant. An amount of 1000 ml of lipolysis buffer was prepared with 0.474 g of tris-maleate (2 mM), 0.206 g of CaCl2.H2O (1.4 mM) and 8.775 g of NaCl (150 mM) adjusted with NaOH to pH 6.5. To assess the potential for prodrug hydrolysis in the intestine, 20 μl of prodrug solution (1 mg/ml dissolved in acetonitrile), 900 μl of simulated intestinal micellar solution [prepared with 0.783 g of NaTDC (3 mM) and 0.291 g of phosphatidyl choline (0.75 mM) in 500 ml lipolysis buffer] and 100 μl of enzyme solution were incubated at 37° C. 20 μl samples of the incubation solution were taken at 0, 5, 10, 15, 30, 60, 90, 120 and 180 minutes post incubation and added to 180 μl of ACN to stop lipolysis. The mixture was vortexed and centrifuged at 5000 rpm for 5 minutes to precipitate proteins prior to analysis. The supernatant was analysed by HPLC-MS for residual compound concentrations, and the potential products of compound hydrolysis were analysed.
On incubation with digestive enzymes the monoglycerides forms of the prodrugs are formed very rapidly. The stability in simulated intestinal conditions is therefore better assessed by the stability of the monoglycerides form that is generated by the initial digestion process. The monoglycerides form must remain intact to be absorbed and re-esterified in the enterocyte prior to entry into the lymphatics. […] This is consistent with the increase in lymphatic transport of Compound 18 when compared to Compound 10, and the high extent of lymphatic transport of Compound 16 in FIG. 4.

[2] = Pharmacokinetic study in rats, testosterone plasma concentrations after oral gavage; settings: for Tmax / AUC0-24 h / Cmax: conscious carotid artery cannulated SD female rats; for AUC0-24 h / Cmax: normalized to 2 mg/kg equivalent testosterone dose
Procedure: In order to assess the oral bioavailability of the compounds of the invention, pharmacokinetic studies were conducted in rats and dogs. […] The rats were then allowed to regain consciousness and fasted overnight prior to the commencement of experiments with free access to water. […] The oral formulation of Compound 2 contained 3 mg of the compound, 20 mg oleic acid and 12.5 mg Tween 80 dispersed in 1 mL PBS. Blood samples were collected from the carotid artery cannula from 5 min prior to administration up to 24 h post-dosing and centrifuged at 5000 rpm for 5 min to separate plasma. […] Plasma samples were stored at −80° C. prior to assay by HPLC-MS-MS. In this case samples were assayed for free drug (i.e. non-glyceride associated drug) and were not hydrolysed prior to assay (as was the case with the lymph samples).
FIG. 12 illustrates dose-normalized testosterone plasma concentrations following oral gavage of formulations to conscious, carotid artery cannulated female SD rats. Formulations contained 1 mg of TU, or 2 mg of compounds of the invention containing testosterone dispersed in 40 mg oleic acid, 25 mg Tween 80 and 2 ml PBS. Doses are normalized to a 2 mg/kg equivalent dose of testosterone. Data are shown as mean±SEM for all groups (n=4 or 3 for each group). The embedded figure is the plot of the dose-normalized plasma AUC0-24h (nmol×h/L) of testosterone in the form of a bar graph.

[3] = Pharmacokinetic study in greyhound dogs, testosterone plasma concentrations after oral administration; format: in vivo; settings: for Cmax / Tmax / AUC0-24 h: oral capsules; for Cmax / AUC0-24 h: normalized to 2 mg/kg equivalent testosterone dose
Procedure: For the dog studies, female greyhound dogs were held in a large animal research facility for at least 5 days prior to the commencement of studies. The dogs were allowed to acclimatise for at least 4 days prior to commencing the study. The dogs were fasted for 12 h up to 30 min prior to drug administration. For the fed state studies (n=4 for TU or Compound 13), dogs received 680 g of standard commercial dog food containing 5% fat min prior to drug administration. In the fasted study (n=1 for Compound 13), the dog remained fasted until after 4 h post-dose. Water was available ad libitum throughout the study for all dogs. On the study day, a 20 gauge intravenous catheter was inserted into a cephalic vein to allow blood sampling. The dogs were free to move around (not restrained) after cannulation. For the fed state studies, Andriol Testocaps (the commercial TU product) or Compound 13 was given to the dogs. Andriol Testocaps were supplied by Merck Sharp & Dohme (Australia) Pty Limited and were formulated as soft gelatin capsule containing a 12.0% (w/w) solution of TU in lauroglycol FCC/castor oil [40:60% (w/w)] with the individual capsule composition being 40 mg of TU, lauroglycol FCC, castor oil, gelatin, glycerol, and sunset yellow (E110). Compound 13 was prepared in a long-chain lipid based self-emulsifying drug delivery system (SEDDS) that consisted of 30.5% w/w soybean oil, 30.5% w/w Maisine 35-1, 31.6% w/w Cremophor EL and 7.4% w/w ethanol. Formulations were filled into hard gelatin capsules. Two capsules of Andriol Testocaps containing 80 mg TU or two capsules of Compound 13 containing a total dose of 90 mg Compound 13 dissolved in 2 g of the SEDDS formulation were administrated to the fed greyhound dog by placing the capsules as far posterior to the pharynx as possible, closing the mouth and rubbing the throat to stimulate swallowing. Subsequently 50 mL of water was administered orally via a syringe. Two capsules of Compound 13 formulation were also administrated to the fasted dogs for fasted state studies. After oral administration, blood samples (approx. 3 mL each) were taken via the cephalic vein cannula from 5 min prior to administration up to 10 hours post-dosing. The patency of the catheters was maintained by flushing with a small volume of heparinised saline (1-2 IU/mL) after each blood sample was withdrawn. Blood samples at 24 h were taken by venepuncture. Plasma was separated by centrifugation and aliquots of each plasma sample were transferred into eppendorf tubes and store at −80° C. prior to analysis by LC-MS-MS.

[4] = for Fold increase (compared with MPA dosed group): lymphatic transport of total MPA derivatives
Procedure: Lipid formulations containing the compound of interest were then administered to the animals, the lymph collected and drug concentrations in the lymph subsequently quantified.
Lipid-based formulations of the compounds of the invention or control compounds were prepared as previously described (Trevaskis, N. L. et al., Pharmaceutical Research, 2005, 22(11), 1863-1870). Briefly, approximately 2 mg of the compound (1 mg in the case of Compound 35 and Compound 1), 40 mg oleic acid and 25 mg Tween 80 were mixed in a glass vial until equilibrated (gentle heat (below 50° C.) may be applied for a short period).
[…] This was to eliminate the potential for the relatively high and variable levels of endogenous testosterone in male rats interfering with the quantification of exogenously dosed testosterone. Rats (240-320 g) were maintained on a standard diet and fasted overnight with free access to water prior to experiments. Anaesthetised rats were placed on a heated pad at 37° C. and cannulas were inserted into the duodenum (for formulation administration and rehydration), mesenteric lymph duct (for lymph collection) and carotid artery (for blood collection) as previously described (Edwards et al. Advanced Drug Delivery Reviews 2001, 50(1), 45-60). Post-surgery, rats were re-hydrated for 0.5 h via intraduodenal infusion of normal saline at 2.8 mL/h. The lipid formulations were infused into the duodenum at 2.8 mL/h for 2 h, after which the infusion was changed to 2.8 mL/h normal saline for the remainder of the experiment. Lymph was continuously collected for 6 to 8 h into pre-weighed Eppendorf tubes containing 10 μL of 1,000 IU/mL heparin. The collection tubes were changed hourly and lymph flow was measured gravimetrically. Aliquots of hourly lymph samples were stored at −80° C. prior to assay.
Drug concentration in lymph is expressed as total drug and includes free drug and drug associated with different glycerides. This is assayed by hydrolysis of lymph (to liberate drug from any re-esterified glycerides) prior to assessment of free drug.
FIG. 1 illustrates the cumulative lymphatic transport of total testosterone related derivatives (% of administered dose) versus time in anaesthetised mesenteric lymph duct cannulated female SD rats following intraduodenal infusion of formulations from 0 to 2 h. Each Formulation contained 2 mg of the exemplified compound or the control, testosterone undecanoate (TU), dispersed in 40 mg oleic acid, 25 mg Tween 80 and 5.6 ml PBS.

[5] = In vitro hydrolysis by rat digestive fluid (bile and pancreatic fluid); format: in vitro ADME; settings: 37° C., drug-loaded lipid formulation, up to 180 min
Procedure: In vitro hydrolysis of MPA related compounds was performed via incubation with rat digestive fluid. Rat digestive fluid was collected from anesthetized rats via cannulation of the common bile-pancreatic duct immediately prior to the entry of the duct into the duodenum (i.e. below the point of entry of pancreatic secretions). This allowed simultaneous collection of bile and pancreatic fluid. The digestive fluid was collected continuously for 2 h, during which time a blank lipid formulation (prepared as described in the rat lymphatic transport studies but without the addition of drug) was infused into the duodenum at a rate of 2.8 ml/h to mimic conditions following drug administration. Bile and pancreatic fluid was maintained at 37° C. and used within 0.5 h of collection for in vitro prodrug hydrolysis experiments. The hydrolysis experiments were conducted via incubation (at 37° C.) of 0.375 mL of rat digestive fluid with 0.625 ml of the drug-loaded lipid formulations (as described in the rat lymphatic transport studies). The volume ratio of digestive fluid to formulation mimicked the flow rate of bile and pancreatic fluid (˜1.5 mL/h) and the infusion rate of the intraduodenal formulations (2.8 mL/h) during the in vivo lymphatic transport studies. Aliquots of 10 μL (samples taken at 0, 2, 5, 10, 15, 30, 60, 90, 120, 180 min) were added to 990 μL of acetonitrile:water (4:1, v/v) to stop lipolysis, vortexed for 1 min and centrifuged at 4500 g for 5 min to precipitate proteins prior to analysis. The supernatant was analysed by HPLC-MS for residual compound concentrations, and the potential products of compound hydrolysis were analysed.
On incubation with digestive enzymes the monoglycerides forms of the prodrugs are formed very rapidly. The stability in simulated intestinal conditions is therefore better assessed by the stability of the monoglycerides form that is generated by the initial digestion process. The monoglycerides form must remain intact to be absorbed and re-esterified in the enterocyte prior to entry into the lymphatics. […]

[6] = testosterone in plasma, oral gavage
[7] = greyhound dog, fasted state (n = 1)
[8] = anaesthetised, mesenteric lymph-duct cannulated male SD rats, intraduodenal infusion 0-2 h, cumulative over 8 h
[9] = male SD rats, intraduodenal infusion

For `CCCCCCCCCCCCCCCC(=O)OCC(COC(=O)CCCCCCCCCCCCCCC)OC(=O)CCCCCCCCC(=O)O[C@H]1CC[C@H]2[C@@H]3CCC4=CC(=O)CC[C@]4(C)[C@H]3CC[C@]12C` [Compound 13], the “stability of the monoglyceride form during in vitro incubation with porcine pancreatic lipase” value [1] was “not highly stable”, the “systemic exposure of parent testosterone (dose-normalised plasma AUC0-24h), fold greater than after Compound 41 or Compound 10” value ([2]; oral administration, SD female rats) was 10 fold and the Tmax [2, 6] was 0.9 ± 0.1 h. For the same compound, the AUC0-24 h [2, 6] was 0.1871 ± 0.0358 µM·h, the Cmax [2, 6] was 197 ± 53.4 nM and the “AUC0-24 h fold increase compared with TU group” value ([3]; greyhound dog, fasted state (n = 1), dose-normalized) was 7.3 fold. The Cmax ([3]; conscious greyhound dogs, fed state, TU as Andriol Testocaps, Compound 13 in SEDDS) was 455 ± 9.4 nM, the Tmax [3, 7] was 2.5 h and the AUC0-24 h [3, 7] was 1.0268 µM·h. It also gave a Cmax [3, 7] of 386 nM, a Tmax ([3]; greyhound dogs, fed state) of 1.8 ± 0.3 h and an AUC0-24 h ([3]; greyhound dogs, fed state) of 1.1166 ± 0.0324 µM·h.
With `CCCCCCCCCCCCCCCC(=O)OCC(COC(=O)CCCCCCCCCCCCCCC)OC(=O)CC(C)CC(=O)O[C@H]1CC[C@H]2[C@@H]3CCC4=CC(=O)CC[C@]4(C)[C@H]3CC[C@]12C` (stereo partly drawn) [Compound 18] the “AUC0-24 h fold increase compared with TU group” value ([2]; testosterone in plasma, oral gavage, SD female rats, dose-normalized) was 0.3 fold, the Tmax [2, 6] was 1.3 ± 0.2 h and the AUC0-24 h [2, 6] was 0.002 ± 0.0001 µM·h. For the same compound, the Cmax [2, 6] was 1.8 ± 0.3 nM, the “Transport of total TST derivatives in lymph (% of dose)” value ([4]; anaesthetised, mesenteric lymph-duct cannulated female SD rats, intraduodenal infusion 0-2 h, cumulative over 8 h) was 28.0 ± 3.4 % of dose and the “lymphatic transport, fold higher than straight chain counterpart Compound 10” value ([4]; female SD rats, intraduodenal infusion) was “approximately 2 fold”. The “Fold increase (compared with control group dosed with TU)” value ([4]; lymphatic transport of total TST derivatives, female SD rats, intraduodenal infusion) was 14.9 fold and the “stability of the monoglyceride form during in vitro incubation with freshly collected rat bile and pancreatic fluid” value [5] was “significantly stabilised the monoglyceride intermediates”.
In the case of `CCCCCCCCCCCCCCCC(=O)OCC(COC(=O)CCCCCCCCCCCCCCC)OC(=O)CCCCOC(=O)CC/C(C)=C/Cc1c(O)c2c(c(C)c1OC)COC2=O` [Compound 31], the “Transport of total MPA derivatives in lymph (% of dose)” value [4, 8] is reported as 8.2 % of dose and 8.2 ± 1.3 % of dose, the “Fold increase (compared with MPA dosed group)” value [4, 9] is reported as 48.9 fold and the “stability of the monoglyceride form during in vitro incubation with freshly collected rat bile and pancreatic fluid” value [5] is reported as “relatively rapidly degraded”.
For `CCCCCCCCCCCCCCCC(=O)OCC(COC(=O)CCCCCCCCCCCCCCC)OC(=O)CCCCCOC(=O)CC/C(C)=C/Cc1c(O)c2c(c(C)c1OC)COC2=O` [Compound 32], the “Transport of total MPA derivatives in lymph (% of dose)” value [4, 8] was 9.6 % of dose and 9.6 ± 1.4 % of dose, the “Fold increase (compared with MPA dosed group)” value [4, 9] was 57.5 fold and the “Transport of total MPA derivatives in lymph (% of dose)” value ([4]; male SD rats, intraduodenal infusion, co-administration with 0.6 mg of JZL184 and 9 μg of orlistat) was 18.8 % of dose. The “stability of the monoglyceride form during in vitro incubation with freshly collected rat bile and pancreatic fluid” value [5] was “relatively rapidly degraded”.
